Results: PMC10527105, “Chirality Matters: Fine-Tuning of Novel Monoamine Reuptake Inhibitors Selectivity through Manipulation of Stereochemistry” (Biomolecules, 2023)
Several values for one entry are separate records, joined by “and”; a condition that tells them apart may be missing. Equal entries are not always repeated. Where two headings read alike, the source gives them in different places.

Key:
Format in all cases: cell-based
[1] = target: T1, human dopamine transporter/SLC6A3 (DAT) (Homo sapiens, UniProt Q01959); assay: Cellular uptake experiments: [3H]-dopamine reuptake inhibition in transporter-expressing HEK293 cells; conditions: cells stably expressing DAT, [3H]-dopamine 1 µM, screening cut-off 50 µM
T1 construct: expressed in transfected cells; host or cells: HEK293
T1 sequence (Q01959 whole entry): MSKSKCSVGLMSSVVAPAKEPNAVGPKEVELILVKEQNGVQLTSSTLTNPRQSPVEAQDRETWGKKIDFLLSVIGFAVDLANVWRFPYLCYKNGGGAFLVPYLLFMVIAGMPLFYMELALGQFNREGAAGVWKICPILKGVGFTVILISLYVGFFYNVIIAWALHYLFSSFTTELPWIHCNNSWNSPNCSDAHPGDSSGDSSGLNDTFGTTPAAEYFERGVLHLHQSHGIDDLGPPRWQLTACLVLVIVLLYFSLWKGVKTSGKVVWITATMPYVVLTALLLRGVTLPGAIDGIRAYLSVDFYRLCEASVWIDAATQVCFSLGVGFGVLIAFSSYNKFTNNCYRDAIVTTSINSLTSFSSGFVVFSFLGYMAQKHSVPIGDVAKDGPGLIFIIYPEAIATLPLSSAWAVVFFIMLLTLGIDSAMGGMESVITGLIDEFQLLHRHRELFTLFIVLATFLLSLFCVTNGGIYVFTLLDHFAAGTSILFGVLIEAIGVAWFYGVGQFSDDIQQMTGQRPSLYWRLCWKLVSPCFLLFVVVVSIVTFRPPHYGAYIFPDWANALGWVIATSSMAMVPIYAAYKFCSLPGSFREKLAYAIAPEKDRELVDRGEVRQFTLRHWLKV
Description: (§1) Cell culture. Human embryonic kidney (HEK) 293 or SK-N-MC (human neuroblastoma) cells were grown in minimum essential medium with Earle’s salts and L-glutamine, 10% heat-inactivated fetal bovine serum, and 50 mg/L gentamicin. Cells were grown in 100- or 60-mm diameter tissue culture dishes (polystyrene, Falcon) at 37 °C under an atmosphere of 5% CO2/95% air. The human dopamine transporter/SLC6A3 (DAT), noradrenaline transporter/SLC6A2 (NET), or human serotonin transporter/SLC6A4 (SERT) cDNA was stably expressed using methods as described previously.
(§2) Cellular uptake experiments. The transporter-expressing HEK293 cells were seeded in poly-D-lysine-coated 24-well plates (1 × 10^5 cells/well) and, one day later, each well was washed with 0.5 mL uptake buffer and incubated with 0.5 mL buffer containing various concentrations of the drugs. Uptake was started by the addition of [^3H]-dopamine, [^3H]-noradrenaline, or [^3H]-serotonin at a final concentration of 1 µM (specific activity 0.14 Ci/mmol) after 5 min of preincubation. After incubation for 2.5 min (SERT-cells: 5 min) at 25 °C, it was stopped by aspirating the uptake buffer and washing each well twice with 1 mL ice-cold buffer. Nonspecific uptake was determined in the presence of 10 µM mazindol (DAT- and NET-cells) or 10 µM clomipramine (SERT-cells). The radioactivity remaining in each well was determined by incubating with 0.4 mL 1% sodium dodecyl sulphate and transferring this solution into scintillation vials containing 3 mL of scintillation cocktail (Ultima Gold MV, Packard, Dovners Grove, IL, USA). The uptake buffer consisted of (mmol/L): 4 Tris–HCl; 6.25 4-(2-hydroxyethyl)-1-piperazineethanesulfonic acid (HEPES); 120 NaCl; 5 KCl; 1.2 CaCl2; 1.2 MgSO4; 5.6 D-glucose; 0.5 ascorbic acid; pH 7.1.

[2] = target: T2, human serotonin transporter/SLC6A4 (SERT) (Homo sapiens, UniProt P31645); assay: Cellular uptake experiments: [3H]-serotonin reuptake inhibition in transporter-expressing HEK293 cells
T2 construct: expressed in transfected cells; host or cells: HEK293
T2 sequence (P31645 whole entry): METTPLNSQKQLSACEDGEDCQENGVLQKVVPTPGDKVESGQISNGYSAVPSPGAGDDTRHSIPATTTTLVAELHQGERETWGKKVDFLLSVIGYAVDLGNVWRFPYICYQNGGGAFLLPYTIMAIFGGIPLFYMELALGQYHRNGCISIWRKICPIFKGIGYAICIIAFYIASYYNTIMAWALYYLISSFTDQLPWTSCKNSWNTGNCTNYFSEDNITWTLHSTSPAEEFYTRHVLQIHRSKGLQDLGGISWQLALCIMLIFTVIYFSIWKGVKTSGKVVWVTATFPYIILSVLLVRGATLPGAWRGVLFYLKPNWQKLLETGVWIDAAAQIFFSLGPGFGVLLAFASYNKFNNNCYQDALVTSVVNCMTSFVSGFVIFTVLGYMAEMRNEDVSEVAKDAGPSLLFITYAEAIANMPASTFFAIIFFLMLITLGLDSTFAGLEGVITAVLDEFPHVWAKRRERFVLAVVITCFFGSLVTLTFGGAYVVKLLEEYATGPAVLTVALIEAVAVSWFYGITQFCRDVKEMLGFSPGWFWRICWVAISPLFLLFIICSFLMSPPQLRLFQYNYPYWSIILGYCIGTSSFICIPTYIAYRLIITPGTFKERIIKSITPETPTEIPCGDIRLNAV
Description: as §1, §2

[3] = target: T3, noradrenaline transporter/SLC6A2 (NET) (Homo sapiens, UniProt P23975); assay: Cellular uptake experiments: [3H]-noradrenaline reuptake inhibition in transporter-expressing HEK293 cells
T3 construct: expressed in transfected cells; host or cells: HEK293
T3 sequence (P23975 whole entry): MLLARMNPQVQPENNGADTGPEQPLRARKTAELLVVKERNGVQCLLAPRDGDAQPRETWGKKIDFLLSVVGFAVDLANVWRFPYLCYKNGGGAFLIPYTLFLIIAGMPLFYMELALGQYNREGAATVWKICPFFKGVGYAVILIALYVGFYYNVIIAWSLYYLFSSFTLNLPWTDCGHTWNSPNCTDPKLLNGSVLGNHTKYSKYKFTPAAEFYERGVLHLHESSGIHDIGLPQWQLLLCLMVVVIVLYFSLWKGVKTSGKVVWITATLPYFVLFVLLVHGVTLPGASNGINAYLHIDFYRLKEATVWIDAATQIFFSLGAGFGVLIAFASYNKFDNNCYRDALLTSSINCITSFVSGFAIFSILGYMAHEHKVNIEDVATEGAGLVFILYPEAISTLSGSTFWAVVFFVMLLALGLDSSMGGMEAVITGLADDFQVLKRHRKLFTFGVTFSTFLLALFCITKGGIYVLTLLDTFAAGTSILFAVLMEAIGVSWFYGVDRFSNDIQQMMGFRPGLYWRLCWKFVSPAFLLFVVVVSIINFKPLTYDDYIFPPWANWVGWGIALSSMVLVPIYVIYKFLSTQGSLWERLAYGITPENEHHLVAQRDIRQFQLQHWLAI
Description: as §1, §2

[4] = Reuptake Inhibition (IC50 ± SE, µM) DAT
[5] = Reuptake Inhibition (IC50 ± SE, µM) SERT, cells stably expressing SERT; [3H]-serotonin 1 µM; screening cut-off 50 µM
[6] = Reuptake Inhibition (IC50 ± SE, µM) NET, cells stably expressing NET; [3H]-noradrenaline 1 µM; screening cut-off 50 µM
[7] = read-out: Reuptake Inhibition (IC50 ± SE, µM) NET; cells stably expressing NET; [3H]-noradrenaline 1 µM; screening cut-off 50 µM
[8] = read-out: Reuptake Inhibition (IC50 ± SE, µM) SERT; cells stably expressing SERT; [3H]-serotonin 1 µM; screening cut-off 50 µM
[9] = read-out: Reuptake Inhibition (IC50 ± SE, µM) DAT
[10] = cells stably expressing SERT; [3H]-serotonin 1 µM; screening cut-off 50 µM; read-out: Reuptake Inhibition (IC50 ± SE, µM) SERT
[11] = cells stably expressing NET; [3H]-noradrenaline 1 µM; screening cut-off 50 µM; read-out: Reuptake Inhibition (IC50 ± SE, µM) NET

SMILES	IC50 [1, 4]	IC50 [2, 5]	IC50 [3, 6]	IC50 [3, 7]	IC50 [2, 8]	IC50 [1, 9]	IC50 [2, 10]	IC50 [3, 11]
COc1ccccc1[C@@H](c1ccccc1)[S@@+]([O-])Cc1cccs1 [Compound 7r, (S,R)-2-((((2-methoxyphenyl)(phenyl)methyl)sulfinyl)methyl)thiophene]	1.7 ± 0.1 µM	> 50 µM	> 50 µM					
COc1cccc(C(c2ccccc2)[S+]([O-])Cc2cccs2)c1 (stereo not drawn) [Compound 7s, 2-((((3-methoxyphenyl)(phenyl)methyl)sulfinyl)methyl)thiophene]	1.56 ± 0.24 µM	> 50 µM		> 50 µM				
COc1ccc([C@@H](c2ccccc2)[S@@+]([O-])Cc2cccs2)cc1 [Compound 7t, (S,R)-2-((((4-methoxyphenyl)(phenyl)methyl)sulfinyl)methyl)thiophene]	15 ± 2 µM	> 50 µM	> 50 µM					
[O-][S+](Cc1cccs1)C(c1ccc(F)cc1)c1ccc(Cl)cc1 (stereo not drawn) [Compound 7u, 2-((((4-chlorophenyl)(4-fluorophenyl)methyl)sulfinyl)methyl)thiophene]	6.4 ± 0.4 µM			> 50 µM	> 50 µM			
[O-][S@@+](Cc1cccs1)[C@H](c1ccccc1)c1ccccc1F [Compound 8a, (S,R)-2-((((2-fluorophenyl)(phenyl)methyl)sulfinyl)methyl)thiophene]						1.09 ± 0.07 µM	> 50 µM	> 50 µM
[O-][S+](Cc1cccs1)C(c1ccccc1)c1cccc(F)c1 (stereo not drawn) [Compound 8b, 2-((((3-fluorophenyl)(phenyl)methyl)sulfinyl)methyl)thiophene]						9 ± 3 µM	> 50 µM	> 50 µM
[O-][S+](Cc1cccs1)C(c1ccccc1)c1ccc(F)cc1 (stereo not drawn) [Compound 8c, 2-((((4-fluorophenyl)(phenyl)methyl)sulfinyl)methyl)thiophene]						5.2 ± 0.1 µM	24 ± 6 µM	> 50 µM
[O-][S@@+](Cc1cccs1)[C@H](c1ccccc1)c1ccccc1Cl [Compound 8d, (S,R)-2-((((2-chlorophenyl)(phenyl)methyl)sulfinyl)methyl)thiophene]						2.55 ± 0.04 µM	> 50 µM	> 50 µM
[O-][S@+](Cc1cccs1)[C@H](c1ccccc1)c1cccc(Cl)c1 [Compound 8e, (R,R)-2-((((3-chlorophenyl)(phenyl)methyl)sulfinyl)methyl)thiophene]	0.83 ± 0.16 µM	19 ± 1 µM	48 ± 6 µM					
[O-][S@+](Cc1cccs1)[C@H](c1ccccc1)c1ccc(Cl)cc1 [Compound 8f, (R,R)-2-((((4-chlorophenyl)(phenyl)methyl)sulfinyl)methyl)thiophene]	4.9 ± 0.6 µM	> 50 µM	> 50 µM					
[O-][S+](Cc1cccs1)C(c1ccccc1)c1ccccc1Br (stereo not drawn) [Compound 8g, 2-((((2-bromophenyl)(phenyl)methyl)sulfinyl)methyl)thiophene]	5.06 ± 0.31 µM			> 50 µM	> 50 µM			
[O-][S+](Cc1cccs1)C(c1ccccc1)c1ccccc1I (stereo not drawn) [Compound 8i, 2-((((2-iodophenyl)(phenyl)methyl)sulfinyl)methyl)thiophene]	9.6 ± 1.2 µM			> 50 µM	> 50 µM			
[O-][S+](Cc1cccs1)C(c1ccccc1)c1cccc(I)c1 (stereo not drawn) [Compound 8j, 2-((((3-iodophenyl)(phenyl)methyl)sulfinyl)methyl)thiophene]	1.5 ± 0.17 µM			> 50 µM	> 50 µM			
[O-][S@+](Cc1cccs1)[C@H](c1ccccc1)c1ccc(I)cc1 [Compound 8k, (R,R)-2-((((4-iodophenyl)(phenyl)methyl)sulfinyl)methyl)thiophene]	2.6 ± 0.1 µM	> 50 µM	> 50 µM					
Cc1ccccc1C(c1ccccc1)[S+]([O-])Cc1cccs1 (stereo not drawn) [Compound 8l, 2-(((phenyl(o-tolyl)methyl)sulfinyl)methyl)thiophene]						9.5 ± 0.9 µM	> 50 µM	> 50 µM
Cc1cccc([C@@H](c2ccccc2)[S@+]([O-])Cc2cccs2)c1 [Compound 8m, (R,R)-2-(((phenyl(m-tolyl)methyl)sulfinyl)methyl)thiophene]	1.56 ± 0.25 µM	> 50 µM	> 50 µM					
Cc1ccc([C@@H](c2ccccc2)[S@+]([O-])Cc2cccs2)cc1 [Compound 8n, (R,R)-2-(((phenyl(p-tolyl)methyl)sulfinyl)methyl)thiophene]			> 50 µM			4 µM and 4.01 µM	25 ± 4 µM	
[O-][S+](Cc1cccs1)C(c1ccccc1)c1ccccc1C(F)(F)F (stereo not drawn) [Compound 8o, 2-(((phenyl(2-(trifluoromethyl)phenyl)methyl)sulfinyl)methyl)thiophene]	8.9 ± 0.7 µM		> 50 µM		> 50 µM			
[O-][S+](Cc1cccs1)C(c1ccccc1)c1cccc(C(F)(F)F)c1 (stereo not drawn) [Compound 8p, 2-(((phenyl(3-(trifluoromethyl)phenyl)methyl)sulfinyl)methyl)thiophene]	6.2 ± 0.6 µM	31 ± 5 µM		> 50 µM				
[O-][S+](Cc1cccs1)C(c1ccccc1)c1ccc(C(F)(F)F)cc1 (stereo not drawn) [Compound 8q, 2-(((phenyl(4-(trifluoromethyl)phenyl)methyl)sulfinyl)methyl)thiophene]	21 ± 2 µM	4.7 ± 0.5 µM		> 50 µM				
COc1ccccc1C(c1ccccc1)[S+]([O-])Cc1cccs1 [Compound 8r, (S,S)-2-((((2-methoxyphenyl)(phenyl)methyl)sulfinyl)methyl)thiophene]	> 50 µM	> 50 µM	> 50 µM					
COc1cccc(C(c2ccccc2)[S+]([O-])Cc2cccs2)c1 (stereo not drawn) [Compound 8s, 2-((((3-methoxyphenyl)(phenyl)methyl)sulfinyl)methyl)thiophene]	> 50 µM	> 50 µM		> 50 µM				
COc1ccc([C@H](c2ccccc2)[S@+]([O-])Cc2cccs2)cc1 [Compound 8t, (R,S)-2-((((4-methoxyphenyl)(phenyl)methyl)sulfinyl)methyl)thiophene]	> 50 µM	> 50 µM	> 50 µM					
[O-][S+](Cc1cccs1)C(c1ccc(F)cc1)c1ccc(Cl)cc1 (stereo not drawn) [Compound 8u, 2-((((4-chlorophenyl)(4-fluorophenyl)methyl)sulfinyl)methyl)thiophene]	5.4 ± 1 µM			> 50 µM	> 50 µM			
